Several values for one entry are separate records, joined by “and”; a condition that tells them apart may be missing. Equal entries are not always repeated.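 These data come from cells grown in 96-well plates and exposed to compound for 48 hours at five concentrations. At the GI50, growth is halved. TGI: total growth inhibition.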
What was measured:
Assay in all cases: NCI-60 cell line screen, 48 h
[1] = test system: HCT-116 colon
[2] = test system: HOP-92 NSCLC
[3] = test system: HT29 colon
[4] = test system: MDA-MB-435
[5] = test system: NCI-H226 lung
[6] = test system: NCI/ADR-RES ovarian
[7] = test system: OVCAR-3 ovarian
[8] = test system: OVCAR-4 ovarian
[9] = test system: OVCAR-8 ovarian
[10] = test system: SK-OV-3 ovarian

Structure (SMILES) | TGI [1] [µM] | TGI [2] | TGI [3] [µM] | TGI [4] [µM] | TGI [5] [µM] | TGI [6] [µM] | TGI [7] [µM] | TGI [8] [µM] | TGI [9] [µM] | GI50 [2] | TGI [10] [µM] | GI50 [1] [µM] | GI50 [3] [µM] | GI50 [7] [µM] | GI50 [8] [µM] | GI50 [10] [µM] | GI50 [4] [µM] | GI50 [5] [µM] | GI50 [6] [µM] | GI50 [9] [µM]
COc1ccc(C2N(c3ccc(C)c(N=C=O)c3)C(=O)N3C(c4ccc(OC)cc4)N(c4ccc(C)c(N=C=O)c4)C(=O)N23)cc1 (configuration not stated) | > 100 | > 100 µM | > 100 | > 100 | > 100 | > 100 | > 100 | > 100 | > 100 |  |  |  |  |  |  |  |  |  |  | 
N#Cc1ccc(-c2ccc(Cl)cc2)n(C2OC(CO)C(O)C(O)C2O)c1=S (configuration not stated) | > 100 | > 100 µM and 51.5 µM | > 100 |  | > 100 |  | > 100 | > 100 | > 100 | > 100 µM and 14.6 µM |  |  |  |  |  |  |  |  |  | 
Clc1ccc(C2SCc3nc4ccccc4n32)cc1 (configuration not stated) |  | 22.3 µM | 49.4 |  | 75.4 |  | > 100 |  | > 100 |  | 69.9 |  |  |  |  |  |  |  |  | 
CCCCCCCCCCCC(=O)N(CCCCCCCCC)CC(O)C(O)C(OC1OC(CO)C(O)C(O)C1O)C(O)CO (configuration not stated) | 32.8 | 34.4 µM | 34.4 | 32 | 37.8 | 38.7 | 40.3 | 49.6 | 39.3 |  |  |  |  |  |  |  |  |  |  | 
N#Cc1sc2c(c1OC(=O)c1ccco1)c(=O)n(-c1ccccc1)c(=S)n2-c1ccccc1 | 41.6 |  | > 100 | 84.4 | > 100 | 82 | 75.5 | 81.2 | > 100 |  | > 100 |  |  |  |  |  |  |  |  | 
Cc1cc(N(CCC#N)CCC#N)ccc1/C(N=Nc1ccc(C(=O)O)cc1)=N\NC(=O)c1ccccc1 | > 100 |  | 41.2 | > 100 | > 100 | > 100 |  | > 100 | > 100 |  | > 100 |  |  |  |  |  |  |  |  | 
CC(=O)/C=C(/C)[O-].CC(=O)/C=C(/C)[O-].CC(=O)[CH-]C(C)=O.CC(=O)[CH-]C(C)=O.[Zr+4] | 16.3 |  | > 100 |  |  |  | > 100 | > 100 |  |  | > 100 | 3.89 | > 100 | > 100 | > 100 | > 100 |  |  |  | 
OCc1ccc2c(c1)CC1(Cc3ccccc3C1)C2 | 35.5 | 38 µM | 33.6 |  | > 100 | 59.5 | 68.5 | > 100 | > 100 |  | 84.8 |  |  |  |  |  |  |  |  | 
CCCN=C1NC(C)=CSC(Nc2ccccc2)=C1C#N | > 100 |  |  | > 100 |  | > 100 | > 100 | > 100 | > 100 |  | > 100 |  |  |  |  |  |  |  |  | 
O=C(CC(=O)N1N=C(c2ccccc2)C(N=Nc2ccc(S(=O)(=O)CCOS(=O)(=O)O)cc2)C1=O)Nc1ccc(Cl)cc1 (configuration not stated) | > 100 | > 100 µM | > 100 | > 100 | > 100 | > 100 | > 100 |  | > 100 |  | > 100 |  |  |  |  |  |  |  |  | 
Cc1ccc2sc3c(NCCCN)nc4ccccc4c3c(=O)c2c1 | 3.42 | 4.65 µM |  | 3.46 | 3.66 | 3.45 | 3.32 | 4.69 | 5.91 | 1.44 µM |  | 1.8 |  | 1.82 | 2.16 |  | 1.82 | 1.84 | 1.8 | 2.41
COc1ccc(/C(=N/O)c2ccccc2C2=Nc3ccccc3C(NCc3ccccc3)O2)cc1C (configuration not stated) | > 100 | 71.9 µM | > 100 | 90.4 | > 100 | > 100 | > 100 |  | 77.1 |  | 82.5 |  |  |  |  |  |  |  |  | 
O=C1C(Cl)N(c2ccc([N+](=O)[O-])cc2)C1c1c[nH]c2ccccc12 (configuration not stated) | > 100 | > 100 µM | > 100 |  |  |  | > 100 | > 100 | > 100 |  | > 100 |  |  |  |  |  |  |  |  | 
CN(C)C(=O)N1N[C@H](c2ccccc2)[C@@H]1c1ccccc1 | > 100 | > 100 µM |  | > 100 | > 100 | > 100 | > 100 | > 100 | > 100 |  | > 100 |  |  |  |  |  |  |  |  | 
CCN(CC)/N=C\c1c2ccccc2cc2ccccc12 | > 100 | 61.1 µM | 88.3 | > 100 |  | > 100 |  | > 100 | > 100 |  | > 100 |  |  |  |  |  |  |  |  | 
COC(=O)/C1=C/C=C\C[C@@]2(C)CC(c3ccoc3)OC(=O)[C@@H]2CC[C@H]1C (some centres not stated) | > 25 | > 25 µM | > 25 |  | > 25 | > 25 | > 25 | > 25 | > 25 |  | > 25 |  |  |  |  |  |  |  |  | 
